Experiments:
[1] = Lipophilicity, log D of the compound at pH 7.4; type: physicochemical; conditions: buffer
[2] = Intrinsic clearance in rat hepatocytes assessed as per million cells; type: ADME, cell-based, Hepatocyte; conditions: read-out: CLH
[3] = Clearance in rat; type: ADME, organism-based; conditions: in vivo
[4] = Oral bioavailability in rat; type: ADME, organism-based; conditions: in vivo
[5] = Volume of distribution at steady state in dog; type: ADME, organism-based, Canis lupus familiaris; conditions: in vivo, read-out: Vdss
[6] = Volume of distribution at steady state in rat; type: ADME, organism-based; conditions: in vivo, read-out: Vdss
[7] = Half life in rat; type: ADME, organism-based; conditions: in vivo
[8] = Intrinsic clearance in dog hepatocytes assessed as per million cells; type: ADME, cell-based, Canis lupus familiaris, Hepatocyte; conditions: read-out: CLH
[9] = Half life in dog; type: ADME, organism-based, Canis lupus familiaris; conditions: in vivo
[10] = Intrinsic clearance in human hepatocytes assessed as per million cells; type: ADME, cell-based, Hepatocyte; conditions: read-out: CLH
[11] = Clearance in dog; type: ADME, organism-based, Canis lupus familiaris; conditions: in vivo
[12] = Oral bioavailability in dog; type: ADME, organism-based, Canis lupus familiaris; conditions: in vivo

Structure (SMILES)	logD [1]	hepatocyte CLint [2] [µL/min/1e6 cells]	further results
CC(=O)Nc1nc(C)c(-c2cc(C)c3c(c2)CN([C@@H](C)C2CC2)C3=O)s1	4.3	11	
CC(=O)Nc1nc(C)c(-c2cc(Cl)c3c(c2)CN([C@@H](C)C2CC2)C3=O)s1	3.9	3	
CC(=O)Nc1nc(C)c(-c2cc3c(c(NS(C)(=O)=O)c2)C(=O)N([C@@H](C)C2CC2)C3)s1	3.3	3.7 to 4	clearance [3]: 0.7 mL/min/kg; bioavailability [4]: 49%; Vd [5]: 0.7 L/kg; Vd [6]: 0.4 L/kg; half-life [7]: 6.7 h; hepatocyte CLint [8]: 7.6 µL/min/1e6 cells; half-life [9]: 1.3 h; hepatocyte CLint [10]: 3.4 µL/min/1e6 cells; clearance [11]: 6.2 mL/min/kg; bioavailability [12]: 1.6%
C[C@@H](C1CC1)N1Cc2cc(-c3cnc(N)nc3)cc(Cl)c2C1=O	2.6	2	
CC(=O)Nc1nc(C)c(-c2cc(Cl)c3c(c2)CN([C@H](C)C2CC2)C3=O)s1	3.9	6	
Cc1cc(-c2cnc3[nH]ccc3n2)cc2c1C(=O)N([C@@H](C)C1CC1)C2	4.3	146	
Cc1cc(-c2nccnc2N)cc2c1C(=O)N([C@@H](C)C1CC1)C2	2.6	43	
CC(=O)Nc1ncc(-c2cc(Cl)c3c(c2)CN([C@@H](C)C2CC2)C3=O)s1	3.8	2	
CNC(=O)c1nc(-c2cc(C)c3c(c2)CN([C@@H](C)C2CC2)C3=O)cnc1N	3.8	4	

Now from value to compound, other results behind:

logD [1]	hepatocyte CLint [2] [µL/min/1e6 cells]	Structure (SMILES)	further results
3.5	166	COCCS(=O)(=O)Nc1cc(-c2sc(NC(C)=O)nc2C)cc2c1C(=O)N([C@@H](C)C1CC1)C2	
2.4	1.7 to 2	CC(=O)Nc1nc(C)c(-c2cc3c(c(S(C)(=O)=O)c2)C(=O)N([C@@H](C)C2CC2)C3)s1	clearance [3]: 6.3 mL/min/kg; bioavailability [4]: 51%; Vd [5]: 1.1 L/kg; Vd [6]: 1.2 L/kg; half-life [7]: 2.3 h; hepatocyte CLint [8]: 1 µL/min/1e6 cells; half-life [9]: 3.9 h; hepatocyte CLint [10]: 0.4 µL/min/1e6 cells
2.7	56	COCCNS(=O)(=O)c1cc(-c2sc(NC(C)=O)nc2C)cc2c1C(=O)N([C@@H](C)C1CC1)C2	
2.5	< 2	CC(=O)Nc1nc(C)c(-c2cc3c(c(S(N)(=O)=O)c2)C(=O)N([C@@H](C)C2CC2)C3)s1	
1.9	6	CC(=O)Nc1nc(C)c(-c2cc3c(c(S(=O)(=O)CCCO)c2)C(=O)N([C@@H](C)C2CC2)C3)s1	
3	4.5 to 5	CNS(=O)(=O)c1cc(-c2sc(NC(C)=O)nc2C)cc2c1C(=O)N([C@@H](C)C1CC1)C2	clearance [3]: 4.4 mL/min/kg; bioavailability [4]: 30%; Vd [5]: 2.2 L/kg; Vd [6]: 1 L/kg; half-life [7]: 2.6 h; hepatocyte CLint [8]: 2.1 µL/min/1e6 cells; half-life [9]: 12 h; hepatocyte CLint [10]: 0.5 µL/min/1e6 cells; clearance [11]: 2.1 mL/min/kg; bioavailability [12]: 44%

From ChEMBL document CHEMBL4118226, “Discovery of Highly Isoform Selective Orally Bioavailable Phosphoinositide 3-Kinase (PI3K)-γ Inhibitors” (J Med Chem, 2018)
